Molecular target: hTREM2 (Homo sapiens, UniProt Q9NZC2)
Assay: Phospho-Syk AlphaScreen/AlphaLISA assay in TREM2 and DAP12 overexpressing HEK293 cells (Example A1)
Format: cell-based
Parameters: expressed in transfected cells
Settings: HEK293 cells; for EC50: read-out: hTREM2 EC50
Protocol: Pharmacological measurements of TREM2 signaling through DAP12 were made with TREM2 and DAP12 overexpressing HEK293 cells stable cell lines that had been single-cell cloned (“TREM2/DAP12-HEK”). The readout of the TREM2 signaling utilized Perkin Elmer AlphaScreen/AlphaLISA technology monitoring the phosphorylation levels of the Syk kinase. TREM2/DAP12-HEK cell lines were cultured in DMEM-F12 (Corning 10-092-CM) supplemented with 1× Penicillin/Streptomycin (Corning 30-002-CI), 1× GlutaMAX (Gibco 35050-061), and 10% Fetal Bovine Serum (Life Technologies 10099) referred to as “HEK Culture Medium”. Suspensions of TREM2/DAP12-HEK cells were prepared in HEK Culture Medium and dispensed into 384-well poly-D-lysine coated microplates (Corning 354661) at a density of 20,000 cells/well using a Multidrop Combi peristaltic microplate dispenser (Thermo), 25 uL volume of cell suspension/well. Plates containing cells were then incubated for 20 hours in a humidified cell culture incubator at 37° C. with 5% CO2 (Thermo). […] Assay Buffer contained diluted test articles (in 1% final DMSO concentration for compounds) or 100 nM anti-human/mouse TREM2 antibody (R&D Systems MAB17291) as a positive control, 100 nM or rat IgG2B isotype Ab as a negative control (R&D Systems MAB0061). Incubated the plates with test articles and controls for 45 minutes at room temperature and then aspirated/removed the medium from each well of the plates. Used a Multidrop Combi peristaltic liquid handler (Thermo) to dispense 15 uL/well of “Cell Lysis Immunoassay Buffer”. The Cell Lysis Immunoassay Buffer contained M-PER Mammalian Protein Extraction Reagent (Pierce/ThermoFisher 78505), 1× Halt Phosphatase Inhibitor Cocktail (ThermoFisher #78427), 0.1875 nM anti-phospho-Syk ([…]/526) ([…]) rabbit mAb (Cell Signaling Technologies catalog #2710), and 1.5 nM biotinylated Mouse anti-human Syk (4D10) antibody (BD Biosciences, catalog #624008). Incubated plates for 1 hour at room temperature after the addition of the Cell Lysis Immunoassay Buffer. Used the Multidrop Combi liquid handler to dispense 15 μL of AlphaScreen Acceptor Bead Solution containing 7.5 μg/mL anti-rabbit IgG (Fc specific) AlphaLISA Acceptor Beads (Perkin Elmer A[…]) in 1× Immunoassay buffer (Perkin Elmer A[…]) to each well of the microplates. Incubated plates for 2 hours at room temperature. Following the incubation with the AlphaLISA Acceptor Bead Solution, used a Multidrop Combi liquid handler (Thermo) to dispense 15 μL of AlphaScreen Donor Bead Solution containing 30 μg/mL of AlphaScreen Streptavidin Donor beads (Perkin Elmer 6760002B) in 1× Immunoassay buffer (Perkin Elmer A[…]) to each well of the microplates. Incubated microplates for 2 hours protected from light sources as the AlphaScreen reagents are light sensitive. Once the final incubation was completed, acquired AlphaScreen signal from the donor and acceptor beads using an Envision high throughput multi-modal microplate reader (Perkin Elmer) calibrated to the plate type with the AlphaScreen mirror and filter-set in 384-well mode, 680 nanometer excitation wavelength. The total measurement time per well was 550 milliseconds with a 180 millisecond excitation time. After reading the AlphaScreen signal for each well of the microplates, on a plate-by-plate basis, each raw test article well value (x) was normalized to a Percent of Control (“POC”) value using the following formula: […] Each plate contained 12 of each type of control wells that were used to generate the mean values. For concentration response curve analysis with test articles tested at various concentrations, the % of activation values were analyzed with 4 Parameter Logistic or Sigmoidal Dose-Response Models using GeneData Screener (GeneData, AG) or GraphPad Prism 7 (Graphpad Software, Inc.). […] This assay may be used to test any of the compounds described herein to assess and characterize a compound's ability to act as an agonist of TREM2.

Chain of hTREM2 (Q9NZC2 19-230): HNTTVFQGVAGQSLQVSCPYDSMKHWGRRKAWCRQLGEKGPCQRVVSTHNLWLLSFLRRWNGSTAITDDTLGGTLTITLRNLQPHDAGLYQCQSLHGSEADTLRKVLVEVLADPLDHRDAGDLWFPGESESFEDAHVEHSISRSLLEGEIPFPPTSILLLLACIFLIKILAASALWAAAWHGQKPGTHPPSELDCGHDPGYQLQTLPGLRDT
Chain of hTREM2 (O43914 22-113 partner): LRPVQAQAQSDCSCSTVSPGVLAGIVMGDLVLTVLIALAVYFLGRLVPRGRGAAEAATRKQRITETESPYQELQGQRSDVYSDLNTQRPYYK

Row | Structure (SMILES) | Emax | EC50 [nM]
1 | Cc1nc2cc(N3CCC[C@H](c4cnn(C)c4)C3)nc(-c3ccc(Cl)cc3F)c2c(=O)n1C (single isomer, unassigned) [Example 100] | +++ (Emax>200 and ≤300) | 50 to 500
2 | Cc1nc2cc(N3CCC[C@@H](c4cn[nH]c4)C3)nc(-c3ccc(Cl)cc3F)c2c(=O)n1C (single isomer, unassigned) [Example 107] | ++++ (Emax>300) | < 50
3 | Cc1nc2cc(N3CCC[C@H](c4cn[nH]c4)C3)nc(-c3ccc(Cl)cc3F)c2c(=O)n1C (single isomer, unassigned) [Example 108] | ++++ (Emax>300) | 50 to 500
4 | Cc1noc([C@@H]2CCCN(c3cc4nc(C)n(C)c(=O)c4c(-c4ccc(Cl)cc4F)n3)C2)n1 (single isomer, unassigned) [Example 111] | ++++ (Emax>300) | 50 to 500
5 | Cc1noc([C@H]2CCCN(c3cc4nc(C)n(C)c(=O)c4c(-c4ccc(Cl)cc4F)n3)C2)n1 (single isomer, unassigned) [Example 112] | +++ (Emax>200 and ≤300) | 3000 to 100000
6 | Cc1nc2cc(N3CCC(F)(F)[C@@H](c4cnn(C)c4)C3)nc(-c3ccc(Cl)cc3F)c2c(=O)n1C (single isomer, unassigned) [Example 118] | +++ (Emax>200 and ≤300) | 50 to 500
7 | Cc1nc2cc([C@@H]3CCO[C@H](c4cnn(C)c4)C3)nc(-c3ccc(Cl)cc3F)c2c(=O)n1C (single isomer, unassigned) [Example 163] | +++ (Emax>200 and ≤300) | 3000 to 100000
8 | Cc1cc([C@@H]2C[C@H](c3cc4nc(C)n(C)c(=O)c4c(-c4ccc(Cl)cc4F)n3)CCO2)ccn1 (single isomer, unassigned) [Example 170] | +++ (Emax>200 and ≤300) | 500 to 3000
9 | COc1cc([C@H]2C[C@@H](c3cc4nc(C)n(C)c(=O)c4c(-c4ccc(Cl)cc4F)n3)CCO2)ccn1 (single isomer, unassigned) [Example 172] | ++++ (Emax>300) | < 50
10 | COc1cc([C@@H]2C[C@H](c3cc4nc(C)n(C)c(=O)c4c(-c4ccc(Cl)cc4F)n3)CCO2)ccn1 (single isomer, unassigned) [Example 173] | +++ (Emax>200 and ≤300) | 500 to 3000
11 | COc1cc([C@H]2C[C@H](c3cc4nc(C)n(C)c(=O)c4c(-c4ccc(Cl)cc4F)n3)CCO2)ccn1 (single isomer, unassigned) [Example 174] | ++++ (Emax>300) | 50 to 500
12 | COc1cc([C@@H]2C[C@@H](c3cc4nc(C)n(C)c(=O)c4c(-c4ccc(Cl)cc4F)n3)CCO2)ccn1 (single isomer, unassigned) [Example 175] | +++ (Emax>200 and ≤300) | 50 to 500
13 | Cc1nc2cc([C@H]3CCO[C@@H](c4cccnc4)C3)nc(-c3ccc(Cl)cc3F)c2c(=O)n1C (single isomer, unassigned) [Example 177] | ++++ (Emax>300) | 50 to 500
14 | Cc1nc2cc(N3CCO[C@H](c4cnn(C)c4)C3)nc(-c3ccc(Cl)cc3F)c2c(=O)n1C [Example 2, 5-(4-chloro-2-fluorophenyl)-2,3-dimethyl-7-((2R)-2-(1-methyl-1H-pyrazol-4-yl)-4-morpholinyl)pyrido[4,3-d]pyrimidin-4(3H)-one] | +++ (Emax>200 and ≤300) | 500 to 3000
15 | Cc1nc2cc(N3CCO[C@@H](c4cnn(C)c4)C3)cc(-c3ccc(Cl)cc3F)c2c(=O)n1C [Example 3, 5-(4-chloro-2-fluorophenyl)-2,3-dimethyl-7-((2S)-2-(1-methyl-1H-pyrazol-4-yl)-4-morpholinyl)-4(3H)-quinazolinone] | +++ (Emax>200 and ≤300) | < 50
16 | Cc1nc2cc(N3CCO[C@H](c4cnn(C)c4)C3)cc(-c3ccc(Cl)cc3F)c2c(=O)n1C [Example 4, 5-(4-chloro-2-fluorophenyl)-2,3-dimethyl-7-((2R)-2-(1-methyl-1H-pyrazol-4-yl)-4-morpholinyl)-4(3H)-quinazolinone] | +++ (Emax>200 and ≤300) | 500 to 3000

Results, then the molecule that gave them:

Row | Emax | EC50 [nM] | Structure (SMILES)
17 | ++++ (Emax>300) | 50 to 500 | Cc1nc2cc(N3CCC[C@@H](c4ccncc4)C3)nc(-c3ccc(Cl)cc3F)c2c(=O)n1C (single isomer, unassigned) [Example 113]
18 | +++ (Emax>200 and ≤300) | 50 to 500 | Cc1nc2cc(N3CCC[C@H](c4ccncc4)C3)nc(-c3ccc(Cl)cc3F)c2c(=O)n1C (single isomer, unassigned) [Example 114]
19 | +++ (Emax>200 and ≤300) | < 50 | Cc1nc2cc(N3CCC(F)(F)[C@H](c4cnn(C)c4)C3)nc(-c3ccc(Cl)cc3F)c2c(=O)n1C (single isomer, unassigned) [Example 117]
20 | ++++ (Emax>300) | 50 to 500 | Cc1ccc([C@H]2CN(c3cc4nc(C)n(C)c(=O)c4c(-c4ccc(Cl)cc4F)n3)CCO2)cn1 (single isomer, unassigned) [Example 139]
21 | ++++ (Emax>300) | 50 to 500 | Cc1ccc([C@@H]2CN(c3cc4nc(C)n(C)c(=O)c4c(-c4ccc(Cl)cc4F)n3)CCO2)cn1 (single isomer, unassigned) [Example 140]
22 | +++ (Emax>200 and ≤300) | < 50 | Cc1nc2cc([C@H]3CCO[C@@H](c4cnn(C)c4)C3)nc(-c3ccc(Cl)cc3F)c2c(=O)n1C (single isomer, unassigned) [Example 162]
23 | +++ (Emax>200 and ≤300) | < 50 | Cc1nc2cc([C@H]3CCO[C@@H](c4cnn(C5CC5)c4)C3)nc(-c3ccc(Cl)cc3F)c2c(=O)n1C (single isomer, unassigned) [Example 165]
24 | +++ (Emax>200 and ≤300) | 500 to 3000 | Cc1nc2cc([C@@H]3CCO[C@H](c4cnn(C5CC5)c4)C3)nc(-c3ccc(Cl)cc3F)c2c(=O)n1C (single isomer, unassigned) [Example 166]
25 | +++ (Emax>200 and ≤300) | < 50 | Cc1cc([C@H]2C[C@@H](c3cc4nc(C)n(C)c(=O)c4c(-c4ccc(Cl)cc4F)n3)CCO2)ccn1 (single isomer, unassigned) [Example 169]
26 | ++++ (Emax>300) | 500 to 3000 | Cc1nc2cc([C@@H]3CCO[C@H](c4cccnc4)C3)nc(-c3ccc(Cl)cc3F)c2c(=O)n1C (single isomer, unassigned) [Example 178]
27 | +++ (Emax>200 and ≤300) | 50 to 500 | Cc1nc2cc(N3CCO[C@@H](c4cnn(C)c4)C3)nc(-c3ccc(Cl)cc3F)c2c(=O)n1C [Example 1, 5-(4-chloro-2-fluorophenyl)-2,3-dimethyl-7-((2S)-2-(1-methyl-1H-pyrazol-4-yl)-4-morpholinyl)pyrido[4,3-d]pyrimidin-4(3H)-one]
28 | ++++ (Emax>300) | 50 to 500 | Cc1nc2cc(N3CCO[C@@H](c4cnn(C)c4)C3)nc(-c3ccc(Cl)cc3)c2c(=O)n1C [Example 5, 5-(4-chlorophenyl)-2,3-dimethyl-7-((2S)-2-(1-methyl-1H-pyrazol-4-yl)-4-morpholinyl)-pyrido[4,3-d]pyrimidin-4(3H)-one]
29 | ++ (Emax>100 and ≤200) | 500 to 3000 | Cc1nc2cc(N3CCO[C@H](c4cnn(C)c4)C3)nc(-c3ccc(Cl)cc3)c2c(=O)n1C [Example 6, 5-(4-chlorophenyl)-2,3-dimethyl-7-((2R)-2-(1-methyl-1H-pyrazol-4-yl)-4-morpholinyl)pyrido[4,3-d]pyrimidin-4(3H)-one]

Reference: US20250388574A1, “HETEROCYCLIC COMPOUNDS AS TRIGGERING RECEPTOR EXPRESSED ON MYELOID CELLS 2 AGONISTS AND METHODS OF USE” (AMGEN INC., priority 2020, published 2025)
